Experimental data taken from ChEMBL document CHEMBL3763061, “Inhibition of cancer cell invasion by new ((3,4-dihydroxy benzylidene)hydrazinyl)pyridine-3-sulfonamide analogs” (2016).
Activity calls are given as the source filed them. The calls are words filed in the database; no cut-off is given here.

Columns and labels:
MDA-MB-231 [1] = assay: Cytotoxicity against human MDA-MB-231 cells assessed as growth inhibition at 10 uM after 24 hrs by MTT assay relative to control; type: functional; conditions: MDA-MB-231, 24 h, read-out: GI
A-375 [2] = assay: Cytotoxicity against human A375 cells assessed as growth inhibition at 10 uM after 24 hrs by MTT assay relative to control; type: functional; conditions: A-375, 24 h, read-out: GI
A-375 [3] = assay: Antimigratory activity against human A375 cells assessed as inhibition of cell migration by wound scratch assay; type: functional, cell-based
A-375 [4] = assay: Inhibition of N-cadherin expression in human A375 cells; type: functional, cell-based
A-375 [5] = assay: Inhibition of alpha-smooth muscle actin expression in human A375 cells; type: functional, cell-based
A-375 [6] = assay: Antiinvasive activity against human A375 cells assessed as inhibition of tumor invasion by transwell invasion assay; type: functional, cell-based
A-375 [7] = assay: Inhibition of vimentin expression in human A375 cells; type: functional, cell-based
MDA-MB-231 [8] = assay: Inhibition of fibronectin expression in human MDA-MB-231 cells; type: functional, cell-based
MDA-MB-231 [9] = assay: Inhibition of vimentin expression in human MDA-MB-231 cells; type: functional, cell-based
MDA-MB-231 [10] = assay: Inhibition of Rab27a expression in human MDA-MB-231 cells; type: functional, cell-based
MDA-MB-231 [11] = assay: Inhibition of N-cadherin expression in human MDA-MB-231 cells; type: functional, cell-based
MDA-MB-231 [12] = assay: Inhibition of alpha-smooth muscle actin expression in human MDA-MB-231 cells; type: functional, cell-based
A-375 [13] = assay: Inhibition of Rab27a expression in human A375 cells; type: functional, cell-based
MDA-MB-231 [14] = assay: Antiinvasive activity against human MDA-MB-231 assessed as inhibition of tumor invasion cells by transwell invasion assay; type: functional, cell-based
A-375 [15] = assay: Inhibition of collagen expression in human A375 cells; type: functional, cell-based
A-375 [16] = assay: Inhibition of fibronectin expression in human A375 cells; type: functional, cell-based
MDA-MB-231 [17] = assay: Antimigratory activity against human MDA-MB-231 cells assessed as density of migrated cells in scratched areas by wound scratch assay; type: functional, cell-based
MDA-MB-231 [18] = assay: Inhibition of collagen expression in human MDA-MB-231 cells; type: functional, cell-based

CN1CCN(S(=O)(=O)c2ccc(N/N=C/c3ccc(O)c(O)c3)nc2)CC1
inhibition of growth at 10 µM (MDA-MB-231 [1]): 2.1% | inhibition of growth at 10 µM (A-375 [2]): 1.29%

O=S(=O)(Nc1cccc(Cl)c1)c1ccc(N/N=C/c2ccc(O)c(O)c2)nc1
inhibition (A-375 [3]): Active | inhibition of growth at 10 µM (MDA-MB-231 [1]): 26.3% | inhibition (A-375 [4]): Active | inhibition (A-375 [5]): inactive | inhibition (A-375 [6]): Active | inhibition (A-375 [7]): Active | inhibition (MDA-MB-231 [8]): inactive | inhibition (MDA-MB-231 [9]): Active | inhibition (MDA-MB-231 [10]): Active | inhibition (MDA-MB-231 [11]): Active | inhibition (MDA-MB-231 [12]): inactive | inhibition (A-375 [13]): Active | inhibition (MDA-MB-231 [14]): Active | inhibition (A-375 [15]): inactive | inhibition (A-375 [16]): inactive | Activity (MDA-MB-231 [17]): Active | inhibition (MDA-MB-231 [18]): inactive | inhibition of growth at 10 µM (A-375 [2]): 71.7%

CN(Cc1ccccc1)S(=O)(=O)c1ccc(N/N=C/c2ccc(O)c(O)c2)nc1
inhibition (A-375 [3]): Active | inhibition of growth at 10 µM (MDA-MB-231 [1]): 24.6% | inhibition (A-375 [4]): Active | inhibition (A-375 [5]): Active | inhibition (A-375 [6]): Active | inhibition (A-375 [7]): Active | inhibition (MDA-MB-231 [8]): Active | inhibition (MDA-MB-231 [9]): Active | inhibition (MDA-MB-231 [10]): Active | inhibition (MDA-MB-231 [11]): Active | inhibition (MDA-MB-231 [12]): Active | inhibition (A-375 [13]): Active | inhibition (MDA-MB-231 [14]): Active | inhibition (A-375 [15]): Active | inhibition (A-375 [16]): Active | Activity (MDA-MB-231 [17]): Active | inhibition (MDA-MB-231 [18]): Active | inhibition of growth at 10 µM (A-375 [2]): 49.4%

CCOC(=O)CN(C)S(=O)(=O)c1ccc(N/N=C/c2ccc(O)c(O)c2)nc1
inhibition of growth at 10 µM (MDA-MB-231 [1]): 0.97% | inhibition of growth at 10 µM (A-375 [2]): -13.7%

O=S(=O)(c1ccc(N/N=C/c2ccc(O)c(O)c2)nc1)N1CCc2ccccc2C1
inhibition (A-375 [3]): inactive | inhibition of growth at 10 µM (MDA-MB-231 [1]): 14.9% | inhibition (A-375 [4]): inactive | inhibition (A-375 [5]): inactive | inhibition (A-375 [6]): inactive | inhibition (A-375 [7]): Active | inhibition (MDA-MB-231 [8]): inactive | inhibition (MDA-MB-231 [9]): Active | inhibition (MDA-MB-231 [11]): inactive | inhibition (MDA-MB-231 [12]): inactive | inhibition (MDA-MB-231 [14]): inactive | inhibition (A-375 [15]): inactive | inhibition (A-375 [16]): inactive | Activity (MDA-MB-231 [17]): inactive | inhibition (MDA-MB-231 [18]): inactive | inhibition of growth at 10 µM (A-375 [2]): 8.41%

O=S(=O)(Nc1ccc(O)cc1)c1ccc(N/N=C/c2ccc(O)c(O)c2)nc1
inhibition of growth at 10 µM (MDA-MB-231 [1]): -1.92% | inhibition of growth at 10 µM (A-375 [2]): -15.1%

O=S(=O)(Nc1cc(Cl)ccc1O)c1ccc(N/N=C/c2ccc(O)c(O)c2)nc1
inhibition of growth at 10 µM (MDA-MB-231 [1]): 7.47% | inhibition of growth at 10 µM (A-375 [2]): -3.03%

O=S(=O)(NCc1cccc2ccccc12)c1ccc(N/N=C/c2ccc(O)c(O)c2)nc1
inhibition of growth at 10 µM (MDA-MB-231 [1]): -21% | inhibition of growth at 10 µM (A-375 [2]): -13.8%

COCCNS(=O)(=O)c1ccc(N/N=C/c2ccc(O)c(O)c2)nc1
inhibition of growth at 10 µM (MDA-MB-231 [1]): -9.95% | inhibition of growth at 10 µM (A-375 [2]): -11.4%

O=S(=O)(c1ccc(N/N=C/c2ccc(O)c(O)c2)nc1)N1CCOCC1
inhibition of growth at 10 µM (MDA-MB-231 [1]): -5.98% | inhibition of growth at 10 µM (A-375 [2]): -9.25%

CN(C)S(=O)(=O)c1ccc(N/N=C/c2ccc(O)c(O)c2)nc1
inhibition of growth at 10 µM (MDA-MB-231 [1]): 4.81% | inhibition of growth at 10 µM (A-375 [2]): 1.44%

O=S(=O)(c1ccc(N/N=C/c2ccc(O)c(O)c2)nc1)N1CCCC1
inhibition of growth at 10 µM (MDA-MB-231 [1]): -13.6% | Activity (MDA-MB-231 [17]): Active | inhibition of growth at 10 µM (A-375 [2]): -2.01%

O=S(=O)(c1ccc(N/N=C/c2ccc(O)c(O)c2)nc1)N1CCCCC1
inhibition of growth at 10 µM (MDA-MB-231 [1]): -15.6% | Activity (MDA-MB-231 [17]): Active | inhibition of growth at 10 µM (A-375 [2]): 5.06%

C[C@@H](NS(=O)(=O)c1ccc(N/N=C/c2ccc(O)c(O)c2)nc1)C1CCCCC1
inhibition of growth at 10 µM (MDA-MB-231 [1]): -25.8% | inhibition of growth at 10 µM (A-375 [2]): 3.45%

O=S(=O)(c1ccc(N/N=C/c2ccc(O)c(O)c2)nc1)N1CCC(O)CC1
inhibition of growth at 10 µM (MDA-MB-231 [1]): -15.8% | inhibition of growth at 10 µM (A-375 [2]): -14.1%
